These results are taken from publication PMC9421656, “Beyond Retigabine: Design, Synthesis, and Pharmacological Characterization of a Potent and Chemically Stable Neuronal Kv7 Channel Activator with Anticonvulsant Activity” (Journal of Medicinal Chemistry, 2022).

“And” between values parts separate entries of the source, which are not always exact repeats. Equal entries are not always repeated. “Also recorded” adds a separate entry of the source.

The target of data set [1] is T1, Kv7.2/Kv7.3 channels (Homo sapiens, UniProt O43525+O43526). Also noted: expressed in transfected cells. As to conditions: cited from earlier work.
Another data set relates to PTZ-induced seizures. The data set is described as follows: Pentylenetetrazol (PTZ)-induced acute seizures in mice. Format: in vivo, C57Bl/6 mice. To be noted: XE991 alone, 3 mg/kg i.p. The protocol: A subcutaneous (s.c.) injection of 100 mg/kg PTZ in mice is able to trigger convulsive behavior whose intensity can be assessed and quantified according to the revised Lüttjohann’s scale (see Materials and Methods),[40] using a 9-point severity score ranging from 0 (whisker trembling) to 8 (wild jumping). For each animal, the maximal severity score (Figure 5A) and the time latency required to reach such values (Figure 5B) were recorded.
Food and water were available ad libitum. Animals were experimentally naive and were used only once.
Thus, each dose was dissolved to allow injection of 0.01 mL/g, i.p. The control group was represented by mice injected only with vehicle solution (saline containing 2% Tween-20 and 2% PEG-400).
PTZ was injected, and animals were placed in clear Plexiglass boxes for observation of seizure activity. The severity of convulsions (from minimal “clonic” to maximal “generalized tonic–clonic”) as well as the latency to onset of maximal seizure was recorded.
0 = whisker trembling, 1 = sudden behavioral arrest, 2 = facial jerking, 3 = neck jerks, 4 = clonic seizures (sitting), 5 = tonic clonic seizures (lying on belly), 6 = clonic seizures (lying on side), 7 = tonic clonic seizures (lying on side), 8 = wild jumping. The behavioral assessments described above were performed in a blind manner and the observers had to reach a unanimous agreement regarding the scoring of the behavior.
The number of animals needed for the experiment was determined using the power analysis software GPower version 3.1.92. The required minimum sample size was 8 mice per group. Statistical analyses were performed using GraphPad Prism (GraphPad Software, LaJolla, CA) using a one-way analysis of variance with the Tukey post-hoc test. The P value of <0.05 was accepted as indicative of a statistically significant difference.

Data set [2] addresses T1, Kv7.2/Kv7.3 channels. The data set is described as follows: FluxOR thallium-sensitive fluorescence-based assay in CHO cells stably expressing Kv7.2 + Kv7.3. Format: cell-based. Also noted: expressed in transfected cells. As to conditions: for Kv7 opening activity (in words) / Slope of the fluorescent signal at 10 μM: 10 μM; for Kv7 opening activity (in words): compared with retigabine or the reference compound of the subseries; for Slope of the fluorescent signal at 10 μM: initial slope of FluxOR signal between 5 and 15 s, mean ± SEM. Here is the method:
While assay robustness in Kv7.2/Kv7.3-expressing cells was high (Z′ factor > 0.5),[27] the Z′ factor calculated in CHO cells expressing Kv7.2 subunits alone was <0.5; thus, all subsequent pharmacological screens were performed in Kv7.2/Kv7.3-expressing cells. […] The Kv7.2/Kv7.3-stable cell line was generated using a plasmid-based PiggyBac transposon system that enables genomic integration of multiple independent transposons containing distinct cDNA sequences. cDNAs for KCNQ2 and KCNQ3 genes (encoding for Kv7.2 and Kv7.3, respectively) were cloned into two different PiggyBac expression vectors (pB-CMV-MCS-EF1α-RedPuro, System Biosciences), and these two plasmids, together with a plasmid encoding for the transposase (System Biosciences), were transfected into CHO cells using Lipofectamine 2000 (Invitrogen) as indicated in the protocol provided by the seller company.
The selected clone stably expressing Kv7.2/Kv7.3 channels was grown in DMEM supplemented with 10% FBS, 50 U/mL Pen-Strep, 2 mM L-glutamine (all purchased from Gibco), and 4 μg/mL puromycin (Sigma) in a humidified atmosphere at 37 °C with 5% CO2. […] A kinetic dispense microplate reader (FLUOstar Optima) was used to read the plate, setting the excitation filter at 485 nm and the emission filter at 520 nm; “Stimulus buffer” prepared as indicated in the protocol was automatically added to wells after 5 s of recording; the plate was read every 1 s, for 50 s. The results were analyzed using Optima Data Analysis and Microsoft Excel.
Only experiments resulting in a Z′ > 0.5 were considered. Data shown (Figures 1D,E,F,G and 3B) were obtained from at least three independent experiments.
Data were analyzed using the GraphPad Prism 8.0.2 (GraphPad Software, LaJolla, CA). Statistically significant differences in the initial slope of the curves were evaluated through ordinary one-way ANOVA, and multiple comparisons were corrected with the Tukey test. […] Indicated EC50 values are the mean of at least three independent experiments ± standard error of the mean (SEM).

A short description of data set [3]: Photostability under UV-visible light with HPLC analysis (degradation, dimer formation). Type of data set: physicochemical. As to conditions: for % Degradation (3h, UV): 10 μM, buffered aqueous solution pH 7.4, 3 h UV-visible light, ± SD; for Dimers Formation / Photodegradation (in words): 3 h UV-visible light; for Dimers Formation: HPLC at 550 nm; for Photodegradation (in words): compared with retigabine. From the text: Two different HPLC wavelengths were utilized: (a) […] to evaluate the decreased concentration of the starting molecule; (b) 550 nm to investigate the formation of phenazine/phenazinium dimers, as previously described.[10] Unfortunately, dimer formation was detected for all tested compounds, except for 23 and 24. […]. […]. The first group consisted of N4 (−X- in Table 2) substituted analogues, in which the tertiary amine is unavailable for the formation of phenazine dimers (compounds 25–28). […]. The third group included derivatives replacing hydrogen atoms with electron-withdrawing fluorine atoms at position R2 of the benzene-1,2,4-triamine core scaffold (compounds 59, 60), a strategy likely reducing the reactivity of N2 and N4. […].
Photostability experiments were performed by dissolving compounds in DMSO and then diluting in buffered aqueous solutions at pH 7.4 to a final concentration of 10 μM. 1 cm quartz cells, filled with the abovementioned solutions, were irradiated by a UV lamp (UV Consulting TQ 150 equipped with Duran 50 sleeve and 150 W power supply unit, Peschl, Germany) at a fixed distance of 20 cm from the UV source. Control samples were maintained at 37 °C, wrapped with aluminum foil to avoid light exposure, and used to assess chemical stability of the compounds. At predetermined intervals, aliquots were withdrawn and analyzed by UHPLC in order to assess the concentration decrease of the starting materials and the presence of the dimers usually formed by retigabine.
Photostability and chemical stability experiments were carried out on a Kinetex^TM C18 150 × 2.1 mm × 2.6 μm (100 Å) column (Phenomenex, Bologna, Italy). The optimal mobile phase consisted of 0.1% TFA/H2O v/v (A) and 0.1% TFA/ACN v/v (B). Analysis was performed in gradient elution as follows: 0–13.0 min, 5–65% B; 13–14.0 min, 65–95% B; 14–15.0 min, isocratic to 95% B; 15–15.01 min, 95–5% B; then 3 min for column re-equilibration. The flow rate was 0.5 mL min^–1. The column oven temperature was set to 45 °C. The injection volume was 7 μL of sample. The following PDA parameters were applied: sampling rate, 12.5 Hz; detector time constant, 0.160 s; cell temperature, 40 °C. Data acquisition was set in the range 190–800 nm, and chromatograms were monitored at 224 nm to assess the decrease in concentration of the starting material, while a wavelength of 550 nm was used to eventually detect dimerization.

Data set [4] is described as follows: In vitro metabolism assay (S9 fraction of human liver microsomes). Format: in vitro ADME. As to conditions: human. Here is the method:
To further explore the metabolic stability of compounds 25, 26, and 60 in a biologically relevant model, they were tested in an in vitro metabolism assay (S9 fraction of human liver microsomes) using retigabine as a comparator.[33],[34] In this assay, a very small extent (4.7 ± 0.5%) of retigabine undergoes phase I metabolism, whereas a larger fraction (17.4 ± 1.2%) was metabolized in phase II reactions, as previously reported.[35]
(In general: Microsomes from liver hold many membrane-bound enzymes, among them those of drug oxidation.)

`CCOC(=O)Nc1ccc(NCc2ccc(F)cc2)c(F)c1N` [SF0034]: the “Potency relative to retigabine in activating Kv7.2/Kv7.3 channels in vitro” value at Kv7.2/Kv7.3 channels [1] is “five times more potent than retigabine”.
As for `O=C1c2ccccc2C(Cc2ccncc2)(Cc2ccncc2)c2ccccc21` [XE991, reference compound], in the data set with PTZ-induced seizures, the “Effect on seizure severity score or latency” value is reported as “did not affect”. Further, at Kv7.2/Kv7.3 channels [2] (10 μM XE991 with retigabine), the “Effect on retigabine-induced increase of maximal fluorescence and initial slope” value is reported as “abolished”.
Take `CC(C)(C)CC(=O)Nc1ccc(NCc2ccc(C(F)(F)F)cc2)cc1N1CCCC1` [compound 23, 3,3-Dimethyl-n-(2-(pyrrolidin-1-yl)-4-((4-(trifluoromethyl)benzyl)amino)phenyl)butanamide]: in data set [3], the “% Degradation (3h, UV)” value came to 97.7± 1.0%; the “Dimers Formation” value is “inability of compounds 23 and 24 to form dimers and No”; the “Photodegradation (in words)” value was “enhanced degradation when compared to retigabine”. On Kv7.2/Kv7.3 channels [2], the “Kv7 opening activity (in words)” value is reported as “comparable to that of the reference compound 17” and the “Slope of the fluorescent signal at 10 μM” value amounted to 0.0772±0.0036.
Turning to `CC(C)(C)CC(=O)Nc1ccc(NCc2ccc(C(F)(F)F)cc2)cc1N1CCCCC1` [compound 24, 3,3-Dimethyl-N-(2-(piperidin-1-yl)-4-((4-(trifluoromethyl)benzyl)amino)phenyl)butanamide], in data set [3], the “% Degradation (3h, UV)” value is recorded as 79.8 ± 4.2%; the “Dimers Formation” value was “inability of compounds 23 and 24 to form dimers and No”; the “Photodegradation (in words)” value is given as “enhanced degradation when compared to retigabine”. In addition, at Kv7.2/Kv7.3 channels [2], the “Kv7 opening activity (in words)” value is listed as “comparable to that of the reference compound 17” and the “Slope of the fluorescent signal at 10 μM” value worked out at 0.0591±0.0043.
On to `CCCCCCC(=O)Nc1ccc(N(C)Cc2ccc(C(F)(F)F)cc2)cc1N` [compound 25, N-(2-Amino-4-(methyl(4-(trifluoromethyl)benzyl)amino)phenyl)heptanamide], for which, in data set [3], the “% Degradation (3h, UV)” value was found to be 63.3±2.8%; the “Dimers Formation” value is “did not form dimers and No”; the “Photodegradation (in words)” value was “underwent extensive photodegradation”. In data set [4], the “Phase I turnover metabolism” value came to 20.6 ± 1.4% and the “Phase II turnover metabolism” value is 33.2 ± 1.0%. For the same compound, at Kv7.2/Kv7.3 channels [2], the “Kv7 opening activity (in words)” value is on record as “improved agonist activity; also recorded: higher than that of retigabine” and the “Slope of the fluorescent signal at 10 μM” value was 0.0637±0.0033.
Take `CN(Cc1ccc(C(F)(F)F)cc1)c1ccc(NC(=O)CC(C)(C)C)c(N)c1` [compound 26, N-(2-Amino-4-(methyl(4-(trifluoromethyl)benzyl)amino)phenyl)-3,3-dimethylbutanamide]: in data set [3], the “% Degradation (3h, UV)” value amounted to 99.5±0.1%; the “Dimers Formation” value is “did not form dimers and No”; the “Photodegradation (in words)” value is reported as “underwent extensive photodegradation”. Also, in data set [4], the “Phase I turnover metabolism” value is given as 32.1 ± 1.2% and the “Phase II turnover metabolism” value turned out to be 32.7 ± 0.3%. For the same compound, on Kv7.2/Kv7.3 channels [2], the “Kv7 opening activity (in words)” value is “improved agonist activity; also recorded: higher than that of retigabine” and the “Slope of the fluorescent signal at 10 μM” value worked out at 0.0721±0.0034.
With `CCCCCCC(=O)Nc1ccc(NCc2ccccc2)cc1N` [compound 41, N-(2-Amino-4-(benzylamino)phenyl)heptanamide], in data set [3], the “% Degradation (3h, UV)” value is 19.5±4.7% and the “Dimers Formation” value was “Yes”. Also, on Kv7.2/Kv7.3 channels [2], the “Kv7 opening activity (in words)” value is “no change in activity” and the “Slope of the fluorescent signal at 10 μM” value is on record as 0.0476±0.0030.
Taken in the same sequence, the figures for `CC(C)(C)CC(=O)Nc1ccc(NCc2c(F)cccc2F)cc1N` [compound 43, N-(2-Amino-4-((2,6-difluorobenzyl)amino)phenyl)-3,3-dimethylbutanamide] were 98.4±0.2%, “Yes”, “still displayed strong activity” and 0.0534±0.0028.
The matching figures for `CCCCCCC(=O)Nc1ccc(NCc2ccccc2F)cc1N` [compound 52, N-(2-Amino-4-((2-fluorobenzyl)amino)phenyl)heptanamide]: 74.9± 0.1%, “Yes”, “no change in activity” and 0.0448±0.0035.
